Experimental data published in ChEMBL document CHEMBL5154737, “Semisynthesis and biological evaluation of (+)-sclerotiorin derivatives as antitumor agents for the treatment of hepatocellular carcinoma” (Eur J Med Chem, 2022).
Counter-ions that a name gives are not always drawn.

Columns and labels:
Bel-7402 [1] = test: Cytotoxicity against human Bel-7402 cells assessed as inhibition rate at 5 uM incubated for 72 hrs by MTT assay relative to control; assay type: functional; parameters: scale not given: the % may be the effect or the level left
Bel-7402 [2] = test: cells; details: Homo sapiens, Bel-7402, 24 h, read-out: Activity
Bel-7402 [3] = test: Cytotoxicity against human Bel-7402 cells assessed as reduction in cell viability incubated for 72 hrs by MTT assay; assay type: functional, cell-based; details: Bel-7402, 72 h
HeLa = test: Cytotoxicity against human HeLa cells assessed as reduction in cell viability incubated for 72 hrs by MTT assay; assay type: functional, cell-based
[4] = Cytotoxicity against human HepG2 cells assessed as reduction in cell viability incubated for 72 hrs by MTT assay; assay type: toxicity, cell-based
ECa-109 cell line = test: Cytotoxicity against human Eca-109 cells assessed as reduction in cell viability incubated for 72 hrs by MTT assay; assay type: functional, cell-based; details: ECa-109, 72 h
PANC-1 = test: Cytotoxicity against human PANC-1 cells assessed as reduction in cell viability incubated for 72 hrs by MTT assay; assay type: functional, cell-based; details: PANC-1, 72 h
[5] = Cytotoxicity against human Biu-87 cells assessed as reduction in cell viability incubated for 72 hrs by MTT assay; assay type: functional, cell-based; details: BIU87, 72 h

**Q.** For CC[C@H](C)/C=C(C)/C=C/C1=CC2=C(Cl)C(=O)[C@](C)(OC(C)=O)C(=O)C2=CN1Cc1ccc(OC(F)(F)F)cc1, which Activity (Bel-7402 [1]) is on record?
**A.** 27.46%

**Q.** For CC[C@H](C)/C=C(C)/C=C/C1=CC2=C(Cl)C(=O)[C@](C)(OC(C)=O)C(=O)C2=CN1c1ccc(OC)cc1, which Activity (Bel-7402 [1]) is on record?
**A.** 7.45%

**Q.** With N#CC(=C(/N)Sc1ccccc1N)/C(C#N)=C(\N)Sc1ccccc1N as the compound, how does the viability at 20 µM (Bel-7402 [2]) read?
**A.** 88.3%

**Q.** With CC[C@H](C)/C=C(C)/C=C/C1=CC2=C(Cl)C(=O)[C@](C)(O)C(=O)C2=CN1Cc1ccc(OC)cc1 as the compound, how does the Activity (Bel-7402 [1]) read?
**A.** 36.51%

**Q.** For CC[C@H](C)/C=C(C)/C=C/C1=CC2=C(Cl)C(=O)[C@](C)(OC(C)=O)C(=O)C2=CN1CCc1cccc(C(F)(F)F)c1, which Activity (Bel-7402 [1]) is on record?
**A.** 35.93%

**Q.** For CC[C@H](C)/C=C(C)/C=C/C1=CC2=C(Cl)C(=O)[C@](C)(OC(C)=O)C(=O)C2=CN1c1ccc(C(F)(F)F)cc1, which Activity (Bel-7402 [1]) is on record?
**A.** 28.9%

**Q.** Which Activity (Bel-7402 [1]) does the source give for C=CCN1C=C2C(=O)[C@@](C)(OC(C)=O)C(=O)C(Cl)=C2C=C1/C=C/C(C)=C/[C@@H](C)CC here?
**A.** 8.65%

**Q.** Which Activity (Bel-7402 [1]) does the source give for CC[C@H](C)/C=C(C)/C=C/C1=CC2=C(Cl)C(=O)[C@](C)(O)C(=O)C2=CN1c1cc(OC)cc(OC)c1 here?
**A.** 11.14%

**Q.** For COc1cccc2c1C(=O)c1c(O)c3c(c(O)c1C2=O)C[C@@](O)(C(=O)CO)C[C@@H]3O[C@H]1C[C@H](N)[C@H](O)[C@H](C)O1 [DOXORUBICIN HYDROCHLORIDE], which IC50 (Bel-7402 [3]) is on record?
**A.** 369 nM

**Q.** What about the IC50 (HeLa) of the same compound?
**A.** 602 nM

**Q.** What about the IC50 at 72 h [4] of the same compound?
**A.** 450 nM

**Q.** And the IC50 (ECa-109 cell line)?
**A.** 201 nM

**Q.** With CC[C@H](C)/C=C(C)/C=C/C1=CC2=C(Cl)C(=O)[C@](C)(O)C(=O)C2=CN1Cc1ccc(C(F)(F)F)cc1 as the compound, how does the IC50 (Bel-7402 [3]) read?
**A.** 1450 nM

**Q.** What about the IC50 (HeLa) of the same compound?
**A.** 2400 nM

**Q.** What about the IC50 (PANC-1) of the same compound?
**A.** 1440 nM

**Q.** And the Activity (Bel-7402 [1])?
**A.** 81.73%

**Q.** What about the IC50 [5] of the same compound?
**A.** 3100 nM

**Q.** What about the IC50 at 72 h [4] of the same compound?
**A.** 3360 nM

**Q.** And the IC50 (ECa-109 cell line)?
**A.** 1480 nM

**Q.** Which Activity (Bel-7402 [1]) does the source give for CC[C@H](C)/C=C(C)/C=C/C1=CC2=C(Cl)C(=O)[C@](C)(OC(C)=O)C(=O)C2=CN1c1ccc(OC)c(OC)c1 here?
**A.** 8.16%

**Q.** For CC[C@H](C)/C=C(C)/C=C/C1=CC2=C(Cl)C(=O)[C@](C)(O)C(=O)C2=CN1c1ccc(OC(F)(F)F)cc1, which Activity (Bel-7402 [1]) is on record?
**A.** 43.16%

**Q.** With CC[C@H](C)/C=C(C)/C=C/C1=CC2=C(Cl)C(=O)[C@](C)(O)C(=O)C2=CN1c1ccc(C(F)(F)F)cc1 as the compound, how does the Activity (Bel-7402 [1]) read?
**A.** 63.16%

**Q.** With CC[C@H](C)/C=C(C)/C=C/C1=CC2=C(Cl)C(=O)[C@](C)(O)C(=O)C2=CN1Cc1ccc(C(F)(F)F)cn1 as the compound, how does the Activity (Bel-7402 [1]) read?
**A.** 10.55%

**Q.** For CC[C@H](C)/C=C(C)/C=C/C1=CC2=C(Cl)C(=O)[C@](C)(OC(C)=O)C(=O)C2=CN1Cc1ccc(OC)cc1, which Activity (Bel-7402 [1]) is on record?
**A.** 6.58%

**Q.** For CC[C@H](C)/C=C(C)/C=C/C1=CC2=C(Cl)C(=O)[C@](C)(OC(C)=O)C(=O)C2=CN1Cc1ccc(C(F)(F)F)cn1, which Activity (Bel-7402 [1]) is on record?
**A.** 21.49%

**Q.** Which Activity (Bel-7402 [1]) does the source give for CC[C@H](C)/C=C(C)/C=C/C1=CC2=C(Cl)C(=O)[C@](C)(O)C(=O)C2=CN1Cc1ccc(C)cc1 here?
**A.** 20.52%

**Q.** For CC[C@H](C)/C=C(C)/C=C/C1=CC2=C(Cl)C(=O)[C@](C)(OC(C)=O)C(=O)C2=CN1Cc1ccc(C)cc1, which Activity (Bel-7402 [1]) is on record?
**A.** 16.2%

**Q.** Which Activity (Bel-7402 [1]) does the source give for CC[C@H](C)/C=C(C)/C=C/C1=CC2=C(Cl)C(=O)[C@](C)(OC(C)=O)C(=O)C2=CN1c1cc(OC)c(OC)c(OC)c1 here?
**A.** 9.61%

**Q.** With CC[C@H](C)/C=C(C)/C=C/C1=CC2=C(Cl)C(=O)[C@](C)(OC(C)=O)C(=O)C2=CN1c1cc(OC)cc(OC)c1 as the compound, how does the Activity (Bel-7402 [1]) read?
**A.** 7.94%

**Q.** Which Activity (Bel-7402 [1]) does the source give for CC[C@H](C)/C=C(C)/C=C/C1=CC2=C(Cl)C(=O)[C@](C)(OC(C)=O)C(=O)C2=CN1Cc1ccc(C(F)(F)F)cc1 here?
**A.** 44.16%

**Q.** Which Activity (Bel-7402 [1]) does the source give for CC[C@H](C)/C=C(C)/C=C/C1=CC2=C(Cl)C(=O)[C@](C)(O)C(=O)C2=CN1c1cc(OC)c(OC)c(OC)c1 here?
**A.** 11.27%

**Q.** For CC[C@H](C)/C=C(C)/C=C/C1=CC2=C(Cl)C(=O)[C@](C)(O)C(=O)C2=CN1c1ccc(OC)c(OC)c1, which Activity (Bel-7402 [1]) is on record?
**A.** 5.75%

**Q.** For CC[C@H](C)/C=C(C)/C=C/C1=CC2=C(Cl)C(=O)[C@](C)(O)C(=O)C2=CN1CCc1cccc(C(F)(F)F)c1, which Activity (Bel-7402 [1]) is on record?
**A.** 45.76%

**Q.** For CC[C@H](C)/C=C(C)/C=C/C1=CC2=C(Cl)C(=O)[C@](C)(O)C(=O)C2=CN1Cc1ccc(C(F)(F)F)nc1, which Activity (Bel-7402 [1]) is on record?
**A.** 12.09%

**Q.** With CC[C@H](C)/C=C(C)/C=C/C1=CC2=C(Cl)C(=O)[C@](C)(OC(C)=O)C(=O)C2=CN1c1ccc(OC(F)(F)F)cc1 as the compound, how does the Activity (Bel-7402 [1]) read?
**A.** 22.81%

**Q.** Which Activity (Bel-7402 [1]) does the source give for CC[C@H](C)/C=C(C)/C=C/C1=CC2=C(Cl)C(=O)[C@](C)(OC(C)=O)C(=O)C2=CN1Cc1ccc(C(F)(F)F)nc1 here?
**A.** 21.53%

**Q.** Which Activity (Bel-7402 [1]) does the source give for C#CCN1C=C2C(=O)[C@@](C)(OC(C)=O)C(=O)C(Cl)=C2C=C1/C=C/C(C)=C/[C@@H](C)CC here?
**A.** 6.81%
